Reference: PMC10298626 (International Journal of Molecular Sciences, 2023)

Columns and labels:
IL-6 = IL-6 production (ELISA) in LPS-stimulated RAW264.7 cells; assay type: cell-based, Mouse; conditions: 20, 40, and 80 μM; 2 h pretreatment, LPS 500 ng/mL 20 h; concentration-dependent
Protocol: Macrophages stimulated by pathogens and cytokines are activated and play an important role in regulating the immune response, inflammatory response, and metabolism. LPS-activated RAW264.7 cells were treated with 20, 40, or 80 μM of coumarin derivative 2 and cultured for 24 h, and the levels of TNF-α and IL-6 in the culture medium were analyzed.
RAW264.7 cells were seeded into 96-well plates and cultured for 24 h. After 2 h of treatment with 20, 40, or 80 μM of coumarin compound derivative 2, the cells were incubated with LPS (500 ng/mL) for 20 h. ELISA kits (R & D Systems, Minneapolis, MN, USA) were used to collect and analyze the cell supernatants for TNF-α and IL-6.
(§1) Figure 3 Effects of coumarin derivative 2 on IL-6 and TNF-α production and mRNA expression in LPS-stimulated RAW264.7 cells. (a) Effect of coumarin derivative 2 on TNF-α and IL-6 production in RAW264.7 cells. The RAW264.7 cells (1 × 10^5/well, 96-well plates) were pretreated with coumarin derivative 2 (20, 40, and 80 μM) for 2 h and incubated with LPS (500 ng/mL) for 20 h. An ELISA kit was used to analyze cell supernatants for TNF-α and IL-6. (b) Effect of coumarin derivative 2 on mRNA expression of IL-6 and TNF-α in RAW264.7 cells. […] IL-6 and TNF-α mRNA expression levels were measured via a real-time quantitative reverse transcription polymerase chain reaction.

ERK = test: LPS-induced phosphorylation of ERK (immunoblotting) in RAW264.7 cells; assay type: cell-based, Mouse; conditions: 20, 40, and 80 μM pretreatment 2 h; LPS 500 ng/mL 30 min
Protocol: RAW264.7 cells were seeded into 6-well plates (2 × 10^6 cells/well) and incubated for 24 h. The cells were incubated with 20, 40, and 80 μM of coumarin derivative 2 for 2 h, and then LPS (500 ng/mL) was added for 30 min (for phosphorylation of ERK, JNK, p38, and p65) and 24 h (for protein expression of iNOS).
The cells were washed with PBS and lysed with radioimmunoprecipitation assay buffer containing 1 mM dithiothreitol (Wako, Tokyo, Japan), phosphatase inhibitor cocktail, 1 mM phenylmethylsulfonylfluoride, 1 mM sodium orthovanadate (Sigma), and 10 mM β-glycerophosphate (Sigma). The extracted proteins were centrifuged at 13,000× g rpm, separated via sodium dodecyl sulfate polyacrylamide gel electrophoresis, and transferred to polyvinylidene fluoride membranes. Nonspecific proteins were blocked by adding 5% skim milk. After blocking, primary antibodies were incubated overnight at 4 °C. After washing with the PBS-T buffer, the secondary antibodies were treated at room temperature for 2 h. For detection, the antibodies were developed with Super Signal® West Femto Substrate (ThermoFisher, Waltham, MN, USA) and analyzed on a Fusion Solo Chemiluminescence System (Vilber Lourmat, Paris, France) ECL detection system.
Figure 5 Inhibitory effects of coumarin derivative 2 on LPS-induced phosphorylation of MAPKs and NF-κB p65 in RAW264.7 cells. […]

in vitro = assay type: cell-based; conditions: mouse, RAW264.7 cells, then LPS (500 ng/mL) 20 h, read-out: Cell viability, Average (%)
Protocol: To investigate the anti-inflammatory activity of coumarin derivatives, cell viability was analyzed by treating RAW264.7 cells with 23 types of coumarin derivatives at concentrations of 20, 40, and 80 μM for 2 h and with LPS for 20 h.
Mouse macrophage RAW264.7 cells were purchased from the Korea Cell Line Bank (Seoul, Republic of Korea) and cultured in Dulbecco’s Modified Eagle Medium (Corning, NY, USA) containing 10% fetal bovine serum and 1% penicillin/streptomycin at 37 °C and 5% CO2. The medium was changed every 2 days and subcultured when the cells grew > 80%.
EZ-Cytox cell viability assay kit (Dogen, Suwon, Republic of Korea) was used to measure cell viability according to the manufacturer’s instructions. RAW264.7 cells were seeded into a 96-well plate (1 × 10^5 cells/well) and treated with coumarin derivatives at concentrations of 20, 40, and 80 μM. After 2 h, the cells were treated with LPS (500 ng/mL) and cultured for 24 h in a 37 °C, 5% CO2 incubator. The culture supernatant was treated with 10% EZ-Cytox reagent, and a microplate reader was used to measure the absorbance at 450 nm.

IL-6 mRNA = IL-6 mRNA expression (qRT-PCR) in LPS-stimulated RAW264.7 cells; assay type: cell-based, Mouse; conditions: 20, 40, and 80 μM; 2 h pretreatment, LPS 500 ng/mL 6 h
Protocol: RAW264.7 cells were seeded into a 6-well plate (2 × 10^6 cells/well) and cultured for 24 h. The cells were treated with coumarin derivative 2 at 20, 40, and 80 μM and cultured for 2 h and with LPS (500 ng/mL) for 6 h.
The cells were washed with phosphate-buffered saline (PBS) and lysed with the RNeasy Mini kit (Qiagen, Hilden, Germany) for RNA isolation. RNA was converted to cDNA using the AccuPower reverse transcriptase Premix Kit (Bioneer, Daejeon, Republic of Korea). A Power SYBR Green PCR Master Mix (Applied Biosystems, Waltham, MN, USA) was used to perform polymerase chain reaction amplification. Amplification conditions were selected within the Quant 3 PCR system (Applied Biosystems). The data were normalized to the amount of glyceraldehyde 3-phosphate dehydrogenase.
as §1, with “IL-6.” for “IL-6. (b) Effect of coumarin derivative 2 on mRNA expression of IL-6 and TNF-α in RAW264.7 cells.”

For `N#CC1=C(N)Oc2c(c(=O)oc3ccccc23)C1c1cccc(F)c1` (stereo not drawn) [Coumarin derivative 2], which “LPS-induced IL-6 level” value (IL-6) is on record?
The value was “significantly reduced”.

What about the “Phosphorylation of ERK” value (ERK) of the same compound?
Its value is “inhibited”.

What about the viability at 22 h, 20 μM (in vitro; 20 μM for 2 h) of the same compound?
The viability at 22 h, 20 μM was 106%.

And the viability at 22 h, 40 μM (in vitro; 40 μM for 2 h)?
Its viability at 22 h, 40 μM is 97.1%.

And the viability at 22 h, 80 μM (in vitro; 80 μM for 2 h)?
The viability at 22 h, 80 μM was 101%.

And the “IL-6 mRNA expression” value (IL-6 mRNA)?
Its value is “significantly suppressed”.
